Measurements from ChEMBL document CHEMBL1857833, “Screening and optimization of specific chemical series against human African Trypanosomiasis (HAT)”.
In brackets after ≈: the same amount, converted by molar mass.

How the values were obtained:
[1] = DNDI: Cytotoxicity against L929 mouse fibroblasts, 72 hour.; type: toxicity, cell-based; conditions: mouse, L929 mouse fibroblasts
[2] = test system: Trypanosoma brucei; assay: DNDI: Inhibition of Human African Trypanosomiasis, SBRI 427, in vitro; type: functional, organism-based
[3] = Trypanosoma brucei, SBRI 427, read-out: IC50

Structure (SMILES) | IC50 [2, 3] [µg/mL] | IC50 [2] [µg/mL] | IC50 at 72 h [1] [µg/mL]
CCC(C)C(NCc1ccc(OC)c(OC)c1)c1nc(-c2ccccc2)c(N2CCCCC2)o1 (stereo unspecified) | > 5 | – | > 10
O=C1CC(=O)N(C(=O)OCc2ccccc2)C1COCc1ccccc1 (stereo unspecified) | > 5 | – | > 10
CCCCCNCc1coc(-c2ccc(CCCC)cc2)n1 | 0.51 (≈ 1.7 µM) | – | 1.64 (≈ 5.46 µM)
CCCCc1ccc(-c2nc(CNCc3ccc(C)cc3)co2)cc1 | 3.05 (≈ 9.12 µM) | – | 2.63 (≈ 7.86 µM)
CCC(C)C(NCc1ccc(OC)c(OC)c1)c1nc(Cc2ccccc2)c(N2CCCCC2)o1 (stereo unspecified) | > 5 | – | > 10
O=C(OC1=CC(=O)N(C(=O)OCc2ccccc2)C1COCc1ccccc1)c1ccccc1 (stereo unspecified) | > 5 | – | > 10
CCCCc1ccc(-c2nc(CNCCCN3CCCCC3)co2)cc1 | 2.01 (≈ 5.65 µM) | 1.48 (≈ 4.16 µM) | 6.2 (≈ 17.4 µM)
O=c1[nH]c(=O)c2sccc2[nH]1 | > 5 | – | > 10
COc1ccc(S(=O)(=O)NC2CCCCC2)cc1OC | > 5 | – | > 10
CCCCCC(C)NCc1coc(-c2c(Cl)cccc2Cl)n1 (stereo unspecified) | 2.04 (≈ 5.98 µM) | – | 5.76 (≈ 16.9 µM)
CCCCCC(C)NCc1coc(-c2ccc(OCCCC)c(C)c2)n1 (stereo unspecified) | 0.42 (≈ 1.17 µM) | – | 1.37 (≈ 3.82 µM)
Cc1ccc(CNC(c2nc(-c3ccccc3)c(N3CCOCC3)o2)C2CC2)cc1 (stereo unspecified) | > 5 | – | > 10
COc1ccc(CNC(CC(C)C)c2nc(Cc3ccccc3)c(N3CCCCC3)o2)cc1OC (stereo unspecified) | > 5 | – | > 10
COc1ccc(CNC(c2nc(Cc3ccccc3)c(N3CCCCC3)o2)C2CCCCC2)cc1OC (stereo unspecified) | > 5 | – | > 10
Cc1oc(-c2ccccc2F)nc1CNCCC1CCCN1C (stereo unspecified) | > 5 | – | > 10
CCCCc1ccc(-c2nc(CN3CCN(c4ccccc4)CC3)co2)cc1 | > 5 | – | > 10
CCCCc1ccc(-c2nc(C)c(C(=O)OC)o2)cc1 | > 5 | – | > 10
CCCCCC(C)NCc1coc(-c2cc(C(C)=O)ccc2O)n1 (stereo unspecified) | 2.32 (≈ 7.02 µM) | – | 3.47 (≈ 10.5 µM)
COc1ccc(-c2nc(CNCCC3CCCN3C)c(C)o2)cc1 (stereo unspecified) | 2.44 (≈ 7.41 µM) | – | > 10
CCCCCC(C)NCc1nc(-c2ccc(C)cc2)oc1C (stereo unspecified) | 1.41 (≈ 4.69 µM) | – | > 10
CCCCCCCCCCOc1ccc(-c2nc(CN[C@@H]3C[C@@H]4C[C@H]([C@H]3C)C4(C)C)co2)cc1 | > 5 | – | 7.22 (≈ 15.5 µM)
Cc1cc2[nH]c(-c3ccccc3)cc(=O)n2n1 | > 5 | – | > 10
CCCCc1ccc(-c2nc(CN)co2)cc1 | > 5 | – | > 10
CCCCCCNCc1coc(-c2ccc(CCCC)cc2)n1 | 0.37 (≈ 1.18 µM) | – | 1.15 (≈ 3.66 µM)
C#[N+]C(C(=O)N1CCOCC1)C(C)C (stereo unspecified) | > 5 | – | > 10
COc1ccc(CNC(CC(C)C)c2nc(C(C)C)c(N3CCOCC3)o2)cc1 (stereo unspecified) | > 5 | – | > 10

Structure (SMILES) | IC50 [2, 3] [µg/mL] | IC50 [2] [µg/mL] | IC50 at 72 h [1] [µg/mL]
COc1cccc(-c2nc(CNCCC3CCCN3C)c(C)o2)c1 (stereo unspecified) | 2.2 (≈ 6.68 µM) | – | > 10
CCCCc1ccc(-c2nc(CNC3CCC3)co2)cc1 | 1.3 (≈ 4.57 µM) | – | 3.51 (≈ 12.3 µM)
CC(C)CC(NCCc1ccc(S(N)(=O)=O)cc1)c1nc(C(C)C)c(N2CCOCC2)o1 (stereo unspecified) | > 5 | – | > 10
CCCCCC(C)NCc1nc(-c2cccc(C)c2)oc1C (stereo unspecified) | 2.16 (≈ 7.19 µM) | – | > 10
CCOCCCNC(c1nc(Cc2ccccc2)c(N2CCOCC2)o1)C1CC1 (stereo unspecified) | > 5 | – | > 10
C[C@@H]1[C@H]2C[C@@H](C[C@H]1NCc1coc(-c3ccc(OC4CCCCC4)cc3)n1)C2(C)C | 0.57 (≈ 1.4 µM) | – | 1.59 (≈ 3.89 µM)
CCCCNCc1coc(-c2ccc(CCCC)cc2)n1 | 0.75 (≈ 2.62 µM) | – | 2.5 (≈ 8.73 µM)
CCCCCC(C)NCc1coc(-c2ccccc2C#N)n1 (stereo unspecified) | 3.76 (≈ 12.6 µM) | – | > 10
O=C(NCC1C(O)=C(C(=O)c2ccccc2)C(=O)N1C(=O)OCc1ccccc1)OCc1ccccc1 (stereo unspecified) | > 5 | – | 9.13 (≈ 18.2 µM)
Cc1ccc(CNC(c2ccccc2)c2nc(-c3ccccc3)c(N3CCCCC3)o2)cc1 (stereo unspecified) | > 5 | – | > 10
C#[N+]C(C(=O)N1CCOCC1)c1ccccc1 (stereo unspecified) | > 5 | – | > 10
CCCCCC(C)NCc1coc(-c2cc(C(F)(F)F)cc(C(F)(F)F)c2)n1 (stereo unspecified) | 2.06 (≈ 5.04 µM) | – | > 10
CCCCOc1ccc(-c2nc(CNCC(C)(C)C)co2)cc1 | 0.9 (≈ 2.84 µM) | – | 1.8 (≈ 5.69 µM)
CC(C)c1ccc(-c2nc(CNCCCN(C)C)co2)cc1 | > 5 | – | > 10
CC(C)CC(NCc1ccc(C(F)(F)F)cc1)c1nc(-c2ccccc2)c(N2CCOCC2)o1 (stereo unspecified) | 2.58 (≈ 5.45 µM) | – | > 10
CCCCc1ccc(-c2nc(CNC(C)CCC)co2)cc1 (stereo unspecified) | 0.61 (≈ 2.03 µM) | – | 2.03 (≈ 6.76 µM)
O/N=C1\COc2ccccc21 | > 5 | – | > 10
CCCCc1ccc(-c2nc(CN3CCN(C(=O)OC(C)(C)C)CC3)co2)cc1 | > 5 | – | > 10
c1ccc(Cc2nc(C(NCc3ccc4c(c3)OCO4)C3CC3)oc2N2CCOCC2)cc1 (stereo unspecified) | > 5 | – | > 10
C/C(O)=C1\C(=O)NC(CC(C)C)C1=O (stereo unspecified) | > 5 | – | > 10
CCCCCC(C)NCc1coc(-c2ccc(OC(F)(F)C(F)F)cc2)n1 (stereo unspecified) | 1.42 (≈ 3.66 µM) | – | 4.3 (≈ 11.1 µM)
CCCCc1ccc(-c2nc(CNCCC)co2)cc1 | 0.75 (≈ 2.75 µM) | – | 4.29 (≈ 15.7 µM)
CCCCc1ccc(-c2nc(CNCCCNC(=O)OC(C)(C)C)co2)cc1 | 0.74 (≈ 1.91 µM) | – | 1.47 (≈ 3.79 µM)
Cc1ccc(CNC(c2nc(Cc3ccccc3)c(N3CCOCC3)o2)C2CC2)cc1 (stereo unspecified) | > 5 | – | > 10
Cc1ccc(CNC(c2cccc(C#N)c2)c2nc(Cc3ccccc3)c(N3CCOCC3)o2)cc1 (stereo unspecified) | > 5 | – | > 10

Now from value to molecule, other results behind:

IC50 [2, 3] [µg/mL] | IC50 [2] [µg/mL] | Structure (SMILES) | IC50 at 72 h [1] [µg/mL]
> 5 | – | O=C1CCCN1CCCNc1cc(-c2ccccc2)nc2cc(-c3cccc(F)c3)nn12 | > 10
> 5 | – | CCCCc1ccc(-c2nc3ncccc3o2)cc1 | > 10
4.3 (≈ 10.4 µM) | – | Fc1cccc(-c2cc3nc(-c4ccccc4)cc(NCCCn4ccnc4)n3n2)c1 | 5.91 (≈ 14.3 µM)
> 5 | – | Cc1cc(NCC(C)(C)CN(C)C)n2nc(-c3cccc(F)c3)cc2n1 | 9.64 (≈ 27.1 µM)
3.75 (≈ 10 µM) | – | Cc1ccc(/C(=N/O)Nc2cccc(F)c2)c(Oc2c(F)cccc2F)n1 | > 10
> 5 | – | Cc1cc(=O)n2nc(-c3cccc(F)c3)cc2[nH]1 | > 10
> 5 | – | Fc1cccc(-c2cc3nc(-c4ccccc4)cc(NCCN4CCOCC4)n3n2)c1 | > 10
> 5 | – | Nc1oc(-c2ccccc2)nc1C(=O)c1ccc(-c2ccccc2)cc1 | 5.23 (≈ 15.4 µM)
> 5 | – | CCCCc1ccc(-c2nc(-c3ccc4ccccc4c3)co2)cc1 | > 10
> 5 | – | CCc1cccc(NS(=O)(=O)c2ccc(OC)c(OC)c2)c1 | > 10
> 5 | – | Cc1cc(NCCN2CCCCC2)n2nc(-c3cccc(F)c3)cc2n1 | > 10
> 5 | – | COc1ccccc1Oc1ncccc1/C(N)=N\O | > 10
> 5 | – | Cc1cc(NCCN2CCCC2)n2nc(-c3cccc(F)c3)cc2n1 | > 10
> 5 | – | COc1ccc(S(=O)(=O)Nc2ccccn2)cc1 | > 10
2.98 (≈ 8.91 µM) | – | CCCCc1ccc(-c2nc(CN[C@H](C)c3ccccc3)co2)cc1 | 3.32 (≈ 9.93 µM)
> 5 | – | COc1ccc(S(=O)(=O)Nc2ccccn2)cc1OC | > 10
> 5 | – | CCCCc1ccc(-c2nc(Nc3cccnc3)co2)cc1 | 6.24 (≈ 21.3 µM)
> 5 | – | O/N=C(\Nc1cccc(F)c1)c1cccnc1Oc1cc(Cl)ccc1Cl | 7.69 (≈ 19.6 µM)

IC50 [2, 3] [µg/mL] | IC50 [2] [µg/mL] | Structure (SMILES) | IC50 at 72 h [1] [µg/mL]
> 5 | – | CCCCc1ccc(-c2nc(Nc3ccccn3)co2)cc1 | > 10
> 5 | – | CC(C)(C)OC(=O)N1CCC(Nc2cc(-c3ccccc3)nc3cc(-c4ccc(F)cc4)nn23)CC1 | > 10
4.46 (≈ 9.4 µM) | – | CC(C)CC(NCc1ccc(Cl)c(Cl)c1)c1nc(-c2ccccc2)c(N2CCOCC2)o1 (stereo unspecified) | > 10
> 5 | – | CN(C)CC(C)(C)CNc1cc(-c2ccccc2)nc2cc(-c3cccc(F)c3)nn12 | > 10
1.18 (≈ 2.99 µM) | 2.27 (≈ 5.76 µM) | Cc1ccc(/C(=N/O)NC2CCCCC2)c(Oc2cc(Cl)ccc2Cl)n1 | > 10
> 5 | – | Cc1ccc(CNC(c2nc(Cc3ccccc3)c(N3CCOCC3)o2)c2ccccc2F)cc1 (stereo unspecified) | > 10
> 5 | – | CCCCc1ccc(-c2nc(CN3C(=O)c4ccccc4C3=O)co2)cc1 | > 10
1.68 (≈ 4.18 µM) | – | Fc1ccc(-c2cc3nc(-c4ccccc4)cc(NCCN4CCCC4)n3n2)cc1 | 4.94 (≈ 12.3 µM)
0.87 (≈ 2.6 µM) | – | CCCCc1ccc(-c2nc(CNC(C)c3ccccc3)co2)cc1 (stereo unspecified) | 3.33 (≈ 9.96 µM)
> 5 | – | Cc1ccc(CNC(c2cccc(Cl)c2)c2nc(Cc3ccccc3)c(N3CCOCC3)o2)cc1 (stereo unspecified) | > 10
> 5 | – | CC(C)(C)OC(=O)N1CCC(Nc2cc(-c3ccccc3)nc3cc(-c4ccc(F)cc4)nn23)C1 (stereo unspecified) | > 10
2.88 (≈ 7.53 µM) | – | COc1cccc(OC)c1CNCc1coc(-c2ccc(OC(C)C)cc2)n1 | 4.15 (≈ 10.9 µM)
> 5 | – | Fc1ccc(-c2cc3nc(-c4ccccc4)cc(NCCN4CCCCC4)n3n2)cc1 | > 10
> 5 | – | CCN(CC)CCCNc1cc(C)nc2cc(-c3cccc(F)c3)nn12 | > 10
1.1 (≈ 2.82 µM) | – | CN(C)CCCNc1cc(-c2ccccc2)nc2cc(-c3ccc(F)cc3)nn12 | 2.57 (≈ 6.6 µM)
0.27 (≈ 0.832 µM) | – | Cc1ccc(Oc2ccccc2/C(=N/O)NC2CCCCC2)cc1 | 4.06 (≈ 12.5 µM)
> 5 | – | Fc1c(F)c(F)c(CO/N=C/c2ccccc2-c2ccccc2)c(F)c1F | > 10
0.09 (≈ 0.255 µM) | – | CC(C)c1ccc(Oc2ncccc2/C(=N\O)NC2CCCCC2)cc1 | 6.75 (≈ 19.1 µM)
